According to the supplement of paper PMC11061612:

Legend:
Test in all cases: combination Emax (second highest fraction inhibited in the dose matrix, 72 h); higher = more inhibition; extreme values may be limits of the assay
[1] = test system: CHSA8926 (Chondrosarcoma)
How it was run: (§1)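 After 24 hours at 37°C and 5% CO2 in 1536-well plates, cells in DMEM/F12 or RPMI plus 10% FBS received two-drug dose matrices for 72 hours. Viability came from CellTiter-Glo 2.0 luminescence and was scaled as inhibition, anchored at 0 by vehicle wells and at 1 by blank wells. Combination Emax is taken as the second-highest inhibition in the matrix, and Bliss excess as the observed combination effect less EA + EB − EA·EB, with EA and EB the single-agent effects.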

[2] = test system: CW-2 (Colorectal Carcinoma)
How it was run: as §1

[3] = test system: DAN-G (Pancreatic Carcinoma)
How it was run: as §1

[4] = test system: DMS-114 (Small Cell Lung Carcinoma)
How it was run: as §1

[5] = test system: ESO51 (Esophageal Adenocarcinoma)
How it was run: as §1

G-361 (Melanoma) = test system: G-361 (Melanoma)
How it was run: as §1

[6] = test system: H9 (T-Cell Non-Hodgkin's Lymphoma)
How it was run: as §1

[7] = test system: HCC1187 (Breast Carcinoma)
How it was run: as §1

[8] = test system: HCC1419 (Breast Carcinoma)
How it was run: as §1

[9] = test system: MOG-G-CCM (Low Grade Glioma)
How it was run: as §1

[10] = test system: MOLM-13 (Acute Myeloid Leukemia)
How it was run: as §1

[11] = test system: NCCIT (Other Solid Carcinomas)
How it was run: as §1

[12] = test system: NCI-H661 (Non-Small Cell Lung Carcinoma)
How it was run: as §1

[13] = test system: NCI-H929 (Plasma Cell Myeloma)
How it was run: as §1

[14] = test system: PC-3 (Prostate Carcinoma)
How it was run: as §1

[15] = test system: RPMI-8226 (Plasma Cell Myeloma)
How it was run: as §1

SJSA-1 (Osteosarcoma) = test system: SJSA-1 (Osteosarcoma)
How it was run: as §1

[16] = test system: SNU-398 (Hepatocellular Carcinoma)
How it was run: as §1

[17] = test system: SUP-B15 (B-Lymphoblastic Leukemia)
How it was run: as §1

[18] = test system: T-T (Esophageal Squamous Cell Carcinoma)
How it was run: as §1

SMILES	combination Emax [1]	combination Emax [2]	combination Emax [3]	combination Emax [4]	combination Emax [5]	combination Emax (G-361 (Melanoma))	combination Emax [6]	combination Emax [7]	combination Emax [8]	combination Emax [9]	combination Emax [10]	combination Emax [11]	combination Emax [12]	combination Emax [13]	combination Emax [14]	combination Emax [15]	combination Emax (SJSA-1 (Osteosarcoma))	combination Emax [16]	combination Emax [17]	combination Emax [18]
Cc1cc2ncnn2cc1Nc1ncc2c(n1)n(C1CCOCC1)c(=O)n2C [AZD7648] + O=C(c1cc(Cc2n[nH]c(=O)c3ccccc23)ccc1F)N1CCN(C(=O)C2CC2)CC1 [Olaparib] (first compound max 10 µM, 7x7, partner max 10 µM)	0.241	0.0683	0.531	0.236	0.224	0.117	0.22	0.294	0.174	0.236	0.43	0.192	0.215	0.761	0.265	0.464	0.18	0.134	0.917	0.0568
COc1cccc(OCCCN)c1-c1cc(Nc2cnc(C#N)cn2)n[nH]1 [Prexasertib] + CCc1c2c(nc3ccc(O)cc13)-c1cc3c(c(=O)n1C2)COC(=O)[C@]3(O)CC [SN-38] (first compound max 1 µM, 7x7, partner max 0.3 µM)	0.537	0.612	0.933	0.716	0.879	0.727	1	0.866	0.402	0.894	1	0.85	0.889	0.865	0.703	1	0.743	0.725	1	0.971
Cc1c2c(nn1C)CSCc1cc(n(C)n1)CSc1cc(c3ccccc3c1)OCCCc1c(C(=O)O)n(C)c3c-2c(Cl)ccc13 [AZD5991] + C[C@@H](Nc1cc(F)cc(F)c1)c1cc(C(=O)N(C)C)cc2c(=O)cc(N3CCOCC3)oc12 [AZD8186] (first compound max 1 µM, 7x7, partner max 3 µM)	0.797	0.139	0.36	0.61	0.217	0.942	0.574	0.993	0.344	0.447	1	0.678	0.6	1	0.449	0.949	0.34	0.995	1	0.915
C[C@@H](c1ccc2nccn2c1)n1nnc2ncc(-c3cnn(C)c3)nc21 [Savolitinib] + Cc1c2c(nn1C)CSCc1cc(n(C)n1)CSc1cc(c3ccccc3c1)OCCCc1c(C(=O)O)n(C)c3c-2c(Cl)ccc13 [AZD5991] (first compound max 1 µM, 7x7, partner max 1 µM)	0.318	0.157	0.195	0.551	0.977	0.358	0.342	1	0.255	0.212	1	0.457	0.491	1	0.121	0.983	0.265	0.936	0.678	0.836
COc1cccc2c1C(=O)c1c(O)c3c(c(O)c1C2=O)C[C@@](O)(C(=O)CO)C[C@@H]3O[C@H]1C[C@H](N)[C@H](O)[C@H](C)O1 [Doxorubicin] + Cc1cc2ncnn2cc1Nc1ncc2c(n1)n(C1CCOCC1)c(=O)n2C [AZD7648] (first compound max 1 µM, 7x7, partner max 10 µM)	0.701	0.231	0.735	0.551	0.611	0.926	1	0.724	0.535	0.663	1	0.825	0.753	0.994	0.431	0.976	0.864	0.595	0.987	0.624
CN(C)CCCOc1ccc(-c2ccc3ncc4c(c3c2)n(C2CCOCC2)c(=O)n4C)cn1 [AZD0156] + CCN(CCO)CCCOc1ccc2c(Nc3cc(CC(=O)Nc4cccc(F)c4)[nH]n3)ncnc2c1 [AZD2811] (first compound max 1 µM, 7x7, partner max 1 µM)	0.214	0.123	0.321	0.232	0.163	0.256	0.727	0.844	0.118	0.367	0.983	0.17	0.0442	0.815	0.16	0.556	0.123	0.339	0.896	0.0991
COc1cccc(OCCCN)c1-c1cc(Nc2cnc(C#N)cn2)n[nH]1 [Prexasertib] + CN(C)CCCOc1ccc(-c2ccc3ncc4c(c3c2)n(C2CCOCC2)c(=O)n4C)cn1 [AZD0156] (first compound max 1 µM, 7x7, partner max 1 µM)	0.288	0.401	0.824	0.408	0.788	0.702	1	0.645	0.258	0.699	1	0.833	0.744	0.825	0.272	1	0.711	0.436	0.959	0.597
Cc1c2c(nn1C)CSCc1cc(n(C)n1)CSc1cc(c3ccccc3c1)OCCCc1c(C(=O)O)n(C)c3c-2c(Cl)ccc13 [AZD5991] + CCN(CCO)CCCOc1ccc2c(Nc3cc(CC(=O)Nc4cccc(F)c4)[nH]n3)ncnc2c1 [AZD2811] (first compound max 1 µM, 7x7, partner max 1 µM)	0.652	0.158	0.702	0.587	0.195	0.964	0.959	1	0.308	0.41	1	0.674	0.686	1	0.305	0.965	0.292	0.991	1	0.95
COc1nnc2ccc(N3CCC(c4ccc(OCCN5CCN(C)C(=O)[C@H]5C)cc4)CC3)nn12 [AZD5153] + CN(CC[C@H](CSC1=CC=CC=C1)NC2=C(C=C(C=C2)S(=O)(=O)NC(=O)C3=CC=C(C=C3)N4CCC(CC4)[C@H](C5=CC=CC=C5C6=CC=C(C=C6)Cl)O)S(=O)(=O)C(F)(F)F)CCO [AZD4320] (first compound max 1 µM, 7x7, partner max 1 µM)	0.695	–	0.345	–	0.666	0.67	1	0.366	0.277	–	1	–	0.272	–	0.347	0.996	–	0.451	1	–
COc1nnc2ccc(N3CCC(c4ccc(OCCN5CCN(C)C(=O)[C@H]5C)cc4)CC3)nn12 [AZD5153] + Cn1cnc2c(F)c(Nc3ccc(Br)cc3Cl)c(C(=O)NOCCO)cc21 [Selumetinib] (first compound max 1 µM, 7x7, partner max 10 µM)	0.442	0.565	0.527	0.614	0.901	0.766	1	0.383	0.355	0.548	1	0.786	0.305	1	0.299	0.913	0.576	0.556	1	0.633
CN(CCO)CC[C@H](CSc1ccccc1)Nc1ccc(S(=O)(=O)NC(=O)c2ccc(N3CCC([C@@H](O)c4ccccc4-c4ccc(Cl)cc4)CC3)cc2)cc1S(=O)(=O)C(F)(F)F [AZD4320] + CN(C)CCCOc1ccc(-c2ccc3ncc4c(c3c2)n(C2CCOCC2)c(=O)n4C)cn1 [AZD0156] (first compound max 1 µM, 7x7, partner max 1 µM)	0.46	0.136	0.346	0.12	0.193	0.288	0.996	0.154	0.245	0.474	1	0.174	0.0831	0.681	0.241	0.949	0.283	0.191	1	0.158
CC(=O)Nc1cccc(-n2c(=O)n(C3CC3)c(=O)c3c(Nc4ccc(I)cc4F)n(C)c(=O)c(C)c32)c1 [Trametinib] + Cc1nc(-c2cn3c(n2)-c2ccc(-c4cnn(C(C)(C)C(N)=O)c4)cc2OCC3)n(C(C)C)n1 [Taselisib] (first compound max 1 µM, 7x7, partner max 10 µM)	–	0.565	0.999	0.668	0.987	0.996	0.984	0.456	0.649	0.548	1	0.73	0.457	1	0.503	0.755	0.699	0.56	1	0.903
C[C@@H](c1ccc2nccn2c1)n1nnc2ncc(-c3cnn(C)c3)nc21 [Savolitinib] + CN(CC[C@H](CSC1=CC=CC=C1)NC2=C(C=C(C=C2)S(=O)(=O)NC(=O)C3=CC=C(C=C3)N4CCC(CC4)[C@H](C5=CC=CC=C5C6=CC=C(C=C6)Cl)O)S(=O)(=O)C(F)(F)F)CCO [AZD4320] (first compound max 1 µM, 7x7, partner max 1 µM)	0.528	–	0.199	–	0.95	0.198	0.929	0.205	0.325	–	1	–	0.189	–	0.189	0.944	–	0.245	1	–
